Test system: H1 human embryonic stem cells
Assay: Bioassay validation: activin A titration with or without Wnt3a, cell number and SOX17 intensity (Example 2)
Assay type: cell-based
Conditions: with 20 ng/ml Wnt3a days 1-2, four-day assay
Description: Activin A is an important mediator of differentiation in a broad range of cell types, including differentiation of embryonic stem cells to definitive endoderm. […] A bioassay that measures this differentiation in human embryonic stem cells was adapted in miniaturized format to 96-well plates for screening purposes. Validation was completed using treatment with commercial sources of activin A and Wnt3a recombinant proteins and measuring protein expression of the transcription factor SOX17, considered to be a representative marker of definitive endoderm.
Briefly, clusters of H1 human embryonic stem cells were grown on reduced growth factor […]™ (Invitrogen; Cat #356231)-coated tissue culture plastic. Cells were passaged using collagenase (Invitrogen; Cat #17104-019) treatment and gentle scraping, washed to remove residual enzyme, and plated in a ratio of 1:1 (surface area) on reduced growth factor […]™-coated 96-well black plates (Packard ViewPlates; Perkin Elmer; Cat #6005182). […]
Imaging was performed using an IN Cell Analyzer 1000 (GE Healthcare) utilizing the 51008bs dichroic for cells stained with Hoechst 33342 and Alexa Fluor 488. […] Segmentation for the nuclei was determined based on gray-scale levels (baseline range 100-300) and nuclear size. […]

Activin A: recombinant human activin A (PeproTech), TGF-beta family member
EC50 for induction of SOX17 expression: 0.03 to 0.05 µg/mL
Optimal activin A effects for induction of SOX17 expression (concentration range): 100 to 200 ng/mL

From US9593305B2, “Differentiation of pluripotent stem cells” (Janssen Biotech, Inc., priority 2008, dated 2017)
